Reference: patent US20210347727A1 (BLADE THERAPEUTICS, INC., priority 2017, published 2021)

Legend:
Human Calpain 1/NS1 = molecular target: T1, Human Calpain 1/NS1 (Homo sapiens, UniProt P07384); experiment: Biochemical inhibition of calpain 1, continuous fluorescence (FRET substrate) assay; settings: mean; read-out: Human Calpain 1/NS1 IC50 (nM)_MEAN
T1 sequence (P07384 1-714): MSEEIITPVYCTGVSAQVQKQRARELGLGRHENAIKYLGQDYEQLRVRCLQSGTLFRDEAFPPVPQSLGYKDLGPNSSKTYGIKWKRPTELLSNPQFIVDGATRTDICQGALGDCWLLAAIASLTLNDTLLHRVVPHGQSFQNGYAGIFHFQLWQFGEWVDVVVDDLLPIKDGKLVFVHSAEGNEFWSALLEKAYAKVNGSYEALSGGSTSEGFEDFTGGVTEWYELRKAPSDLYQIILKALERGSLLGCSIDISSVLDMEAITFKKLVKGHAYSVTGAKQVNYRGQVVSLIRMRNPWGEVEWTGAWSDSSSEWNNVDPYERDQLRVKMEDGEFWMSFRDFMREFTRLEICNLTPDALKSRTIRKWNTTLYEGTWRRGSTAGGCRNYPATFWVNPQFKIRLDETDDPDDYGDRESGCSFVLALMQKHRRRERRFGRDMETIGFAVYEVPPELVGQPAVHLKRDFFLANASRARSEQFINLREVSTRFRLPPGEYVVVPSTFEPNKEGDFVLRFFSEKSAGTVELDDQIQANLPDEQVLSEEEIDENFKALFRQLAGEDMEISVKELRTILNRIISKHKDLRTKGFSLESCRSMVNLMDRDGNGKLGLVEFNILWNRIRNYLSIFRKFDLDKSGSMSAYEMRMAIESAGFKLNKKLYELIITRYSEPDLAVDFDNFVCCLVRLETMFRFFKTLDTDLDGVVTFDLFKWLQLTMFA
T1 sequence (P04632 1-268 partner): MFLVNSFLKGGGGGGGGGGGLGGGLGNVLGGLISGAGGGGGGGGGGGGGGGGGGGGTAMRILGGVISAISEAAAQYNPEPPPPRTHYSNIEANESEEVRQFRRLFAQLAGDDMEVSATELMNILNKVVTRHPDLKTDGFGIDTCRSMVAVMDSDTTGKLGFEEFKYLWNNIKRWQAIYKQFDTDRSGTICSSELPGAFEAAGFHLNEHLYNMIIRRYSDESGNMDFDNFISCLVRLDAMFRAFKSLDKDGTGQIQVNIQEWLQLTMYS
Protocol: (§1) Calpain 1, 2, and 9 activity and inhibition thereof are assessed by means of a continuous fluorescence assay. The SensoLyte 520 Calpain substrate (Anaspec Inc) is optimized for detecting calpain activity. This substrate contains a novel internally quenched 5-FAM/QXL™ 520 FRET pair. Calpains 1, 2, and 9 cleave the FRET substrate into two separate fragments resulting in an increase of 5-FAM fluorescence that is proportional to calpain activity.
(§2) Assays are typically setup in black 384-well plates using automated liquid handling as follows. Calpain assay base buffer typically contains 50 mM Tris, pH 7.5, 100 mM NaCl and 1 mM DTT. Inhibitors are serially diluted in DMSO and used to setup 2× mixtures with calpains in the aforementioned buffer. After incubation at ambient temperature (25 C), the reaction is initiated by adding a 2× mix of the fluorescent peptide substrate and CaCl2 (required for in-situ calpain activation) in the same buffer. Reaction progress curve data are typically collected for 10 min using excitation/emission wavelengths of 490 nm/520 nm on SpectraMax i3x or the FLIPR-Tetra plate readers (Molecular Devices Inc). Reaction rates were calculated from progress curve slopes typically over 1-5 min. Dose response curves (rate vs. log inhibitor concentration) were typically fit to a 4-parameter logistic function to extract IC50 values.

Human Calpain 2/NS1 = molecular target: T2, Human Calpain 2/NS1 (Homo sapiens, UniProt P17655); experiment: Biochemical inhibition of calpain 2, continuous fluorescence (FRET substrate) assay; settings: mean; read-out: Human Calpain 2/NS1 1C50 [sic] (nM)_MEAN
T2 sequence (P17655 1-700): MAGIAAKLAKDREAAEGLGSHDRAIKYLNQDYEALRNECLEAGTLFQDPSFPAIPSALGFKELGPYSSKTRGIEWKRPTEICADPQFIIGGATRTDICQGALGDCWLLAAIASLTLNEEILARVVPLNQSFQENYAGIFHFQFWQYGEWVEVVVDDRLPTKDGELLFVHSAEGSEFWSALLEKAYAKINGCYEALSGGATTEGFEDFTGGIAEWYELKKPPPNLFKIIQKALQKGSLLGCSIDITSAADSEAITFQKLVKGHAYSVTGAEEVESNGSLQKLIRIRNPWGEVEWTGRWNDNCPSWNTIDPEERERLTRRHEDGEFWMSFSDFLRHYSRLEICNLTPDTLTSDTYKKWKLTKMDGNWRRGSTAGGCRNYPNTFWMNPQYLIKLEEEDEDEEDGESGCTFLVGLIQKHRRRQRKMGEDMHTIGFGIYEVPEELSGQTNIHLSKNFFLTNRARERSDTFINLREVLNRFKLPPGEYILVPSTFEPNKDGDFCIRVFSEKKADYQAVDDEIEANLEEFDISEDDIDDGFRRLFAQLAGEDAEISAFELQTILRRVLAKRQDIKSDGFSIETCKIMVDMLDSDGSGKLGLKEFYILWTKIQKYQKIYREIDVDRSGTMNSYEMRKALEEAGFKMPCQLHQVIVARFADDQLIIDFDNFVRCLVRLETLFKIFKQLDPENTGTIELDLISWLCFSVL
T2 sequence (P04632 1-268 partner): T1 sequence (P04632 1-268 partner)
Protocol: as §1, §2

Human Calpain 9/NS1 = molecular target: T3, Human Calpain 9/NS1 (Homo sapiens, UniProt O14815); experiment: Biochemical inhibition of calpain 9, continuous fluorescence (FRET substrate) assay; settings: mean; read-out: Human Calpain 9/NS1 IC50 (nM)_MEAN
T3 sequence (O14815 1-690): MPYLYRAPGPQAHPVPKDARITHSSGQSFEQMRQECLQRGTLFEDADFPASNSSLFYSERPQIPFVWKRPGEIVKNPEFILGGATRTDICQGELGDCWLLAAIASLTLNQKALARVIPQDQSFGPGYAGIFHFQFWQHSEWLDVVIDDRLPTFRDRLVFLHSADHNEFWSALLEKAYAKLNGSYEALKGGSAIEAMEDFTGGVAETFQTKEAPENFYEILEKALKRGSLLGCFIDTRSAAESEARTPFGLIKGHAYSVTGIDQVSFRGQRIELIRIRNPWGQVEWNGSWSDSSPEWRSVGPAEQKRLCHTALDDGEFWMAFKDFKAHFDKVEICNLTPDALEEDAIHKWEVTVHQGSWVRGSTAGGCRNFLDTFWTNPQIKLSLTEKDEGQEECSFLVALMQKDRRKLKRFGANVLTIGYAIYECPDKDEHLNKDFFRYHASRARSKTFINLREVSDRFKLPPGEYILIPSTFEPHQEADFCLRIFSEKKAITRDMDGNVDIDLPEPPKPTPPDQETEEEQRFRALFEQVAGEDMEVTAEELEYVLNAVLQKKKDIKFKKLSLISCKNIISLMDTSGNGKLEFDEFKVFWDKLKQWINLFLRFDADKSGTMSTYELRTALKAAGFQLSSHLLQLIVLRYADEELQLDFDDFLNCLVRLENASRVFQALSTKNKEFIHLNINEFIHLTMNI
T3 sequence (P04632 1-268 partner): T1 sequence (P04632 1-268 partner)
Protocol: as §1, §2

[1] = system: calpain activity in SH-SY5Y cells (Spectrin); experiment: SH-SY5Y Spectrin cellular calpain inhibition; format: cell-based
[2] = system: calpain activity in SH-SY5Y cells; experiment: SH-SY5Y cellular calpain activity, Suc-LLVY-AMC fluorescence assay; format: cell-based; settings: Suc-LLVY-AMC substrate
Protocol: Calpain activity in SH-SY5Y cells and inhibition thereof were assessed by means of a homogeneous, fluorescence assay that uses the cell-permeable and pro-fluorescent calpain substrate Suc-LLVY-AMC (Sigma-Aldrich Inc). Upon intracellular calpain cleavage of Suc-LLVY-AMC, fluorescent amino-methyl-coumarin (AMC) is released into the media resulting in a continuous increase in fluorescence signal that is proportional to intra-cellular calpain activity.
Assays were typically setup by seeding SH-SY5Y cells in black 384-well plates at 40 k/per well in RPMI-1640 containing 1% serum followed by 37 C overnight incubation. Next morning, cells were pre-incubated for 30 min with serially diluted compounds followed by addition of 100 uM of Suc-LLVY-AMC substrate. The continuous increase in AMC fluorescence is monitored using a FLIPR, Tetra plate reader (Molecular Devices Inc) and slopes measured to report calpain activity. Dose response curves (slopes vs. log inhibitor concentration) were typically fit to a 4-parameter logistic function to extract IC50 values.

Row | IC50 (Human Calpain 1/NS1) [nM] | IC50 (Human Calpain 2/NS1) [nM] | IC50 (Human Calpain 9/NS1) [nM] | IC50 [1] [µM] | IC50 [2] [µM] | Structure (SMILES)
1 | < 3000 | < 3000 | < 3000 | 10 to 25 | < 10 | NC(=O)C(=O)[C@H](Cc1ccccc1)NC(=O)c1c(Cl)cccc1Br [Compound 14, (S)—N-(4-AMINO-3,4-DIOXO-1-PHENYLBUTAN-2-YL)-2-BROMO-6-CHLOROBENZAMIDE]
2 | < 3000 | < 3000 | < 3000 | < 10 | < 10 | NC(=O)C(=O)[C@H](Cc1ccccc1)NC(=O)c1cc(Br)ccc1Cl [Compound 34, (S)—N-(4-AMINO-3,4-DIOXO-1-PHENYLBUTAN-2-YL)-5-BROMO-2-CHLOROBENZAMIDE]
3 | < 3000 | < 3000 | < 3000 | 10 to 25 | > 25 | NC(=O)C(=O)[C@H](Cc1ccccc1)NC(=O)c1c(Cl)cccc1Cl [Compound 1, (S)—N-(4-AMINO-3,4-DIOXO-1-PHENYLBUTAN-2-YL)-2,6-DICHLOROBENZAMIDE]
4 | < 3000 | < 3000 | < 3000 | < 10 | 10 to 25 | O=CC(Cc1ccccc1)NC(=O)c1c(C(F)(F)F)ccc(Cl)c1F (stereo not drawn) [Compound 38, 3-CHLORO-2-FLUORO-N-(1-OXO-3-PHENYLPROPAN-2-YL)-6-(TRIFLUOROMETHYL)BENZAMIDE]
5 | < 3000 | < 3000 | < 3000 | 10 to 25 | < 10 | NC(=O)C(=O)[C@H](Cc1ccccc1)NC(=O)c1cc(Cl)ccc1Cl [Compound 22, (S)—N-(4-AMINO-3,4-DIOXO-1-PHENYLBUTAN-2-YL)-2,5-DICHLOROBENZAMIDE]
6 | < 3000 | < 3000 | < 3000 | > 25 | < 10 | Cn1c2ccccc2c2c(C(=O)NC(C=O)Cc3ccccc3)cccc21 (stereo not drawn) [Compound 47, 9-METHYL-N-(1-OXO-3-PHENYLPROPAN-2-YL)-9H-CARBAZOLE-4-CARBOXAMIDE]
7 | < 3000 | < 3000 | < 3000 | < 10 | < 10 | NC(=O)C(=O)[C@H](Cc1ccccc1)NC(=O)c1c(C(F)(F)F)ccc(Cl)c1F [Compound 32, (S)—N-(4-AMINO-3,4-DIOXO-1-PHENYLBUTAN-2-YL)-3-CHLORO-2-FLUORO-6-(TRIFLUOROMETHYL)BENZAMIDE]
8 | < 3000 | < 3000 | < 3000 | > 25 | > 25 | O=CC(Cc1ccccc1)NC(=O)c1cccc2c1Oc1ccccc1O2 (stereo not drawn) [Compound 48]
9 | < 3000 | < 3000 | < 3000 | 10 to 25 | < 10 | O=CC(Cc1ccccc1)NC(=O)c1c(Cl)cccc1Cl (stereo not drawn) [Compound 45, 2,6-DICHLORO-N-(1-OXO-3-PHENYLPROPAN-2-YL)BENZAMIDE]
10 | < 3000 | < 3000 | < 3000 | > 25 | 10 to 25 | NC(=O)C(=O)[C@H](Cc1ccccc1)NC(=O)c1c(F)cc(F)cc1F [Compound 3, (S)—N-(4-AMINO-3,4-DIOXO-1-PHENYLBUTAN-2-YL)-2,4,6-TRIFLUOROBENZAMIDE]
11 | < 3000 | < 3000 | < 3000 | < 10 | < 10 | NC(=O)C(=O)[C@H](Cc1ccccc1)NC(=O)c1cc(F)c(Cl)cc1Cl [Compound 33, (S)—N-(4-AMINO-3,4-DIOXO-1-PHENYLBUTAN-2-YL)-2,4-DICHLORO-5-FLUOROBENZAMIDE]
12 | < 3000 | < 3000 | < 3000 | 10 to 25 | < 10 | Cc1ccc(F)c(C(=O)N[C@@H](Cc2ccccc2)C(=O)C(N)=O)c1Cl [Compound 30, (S)—N-(4-AMINO-3,4-DIOXO-1-PHENYLBUTAN-2-YL)-2-CHLORO-6-FLUORO-3-METHYLBENZAMIDE]

Row | Structure (SMILES) | IC50 (Human Calpain 1/NS1) [nM] | IC50 (Human Calpain 2/NS1) [nM] | IC50 (Human Calpain 9/NS1) [nM] | IC50 [1] [µM] | IC50 [2] [µM]
13 | Cn1c2ccccc2c2cccc(C(=O)NC(Cc3ccccc3)C(=O)C(N)=O)c21 (stereo not drawn) [Compound 12] | < 3000 | < 3000 | < 3000 | > 25 | < 10
14 | NC(=O)C(=O)C(Cc1ccccc1)NC(=O)c1cccc2c1Oc1ccccc1O2 (stereo not drawn) [Compound 7, N-(4-AMINO-3,4-DIOXO-1-PHENYLBUTAN-2-YL)DIBENZO[b,e][1,4]DIOXINE-1-CARBOXAMIDE] | < 3000 | < 3000 | < 3000 | 10 to 25 | > 25
15 | NC(=O)C(=O)C(Cc1ccccc1)NC(=O)c1cccc2c1oc1ccccc12 (stereo not drawn) [Compound 9, N-(4-AMINO-3,4-DIOXO-1-PHENYLBUTAN-2-YL)DIBENZO[b,d]FURAN-4-CARBOXAMIDE] | < 3000 | < 3000 | < 3000 | > 25 | > 25
